# Test results taken from US20260356819A1, “OXOISOINDOLINYL-SUBSTITUTED […] DERIVATIVE AND USE THEREOF” (GLUETACS THERAPEUTICS (SHANGHAI) CO., LTD., priority 2023, published 2026).
# Assays:
# Format in all cases: cell-based
# Details in all cases: compounds at 50 nM and 500 nM
# WEE1 = target: T1, WEE1 (Homo sapiens, UniProt P30291+Q96SW2); test: Western blot degradation of WEE1 in hPBMCs (24 h)
# T1 construct: The supernatant was aspirated as the extracted total cell protein; endogenous in cells; host or cells: human peripheral blood mononuclear cells (hPBMCs)
# Procedure, shortened: (§1)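 Western blot densitometry after 24 h treatment of human PBMCs (1×10^6 cells/mL) with 50 nM or 500 nM compound. Remaining target (%) = band intensity over internal-control band, normalized to DMSO; degradation = 1 − remaining; DC50 is the concentration giving half the DMSO band signal.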
# IKZF1 = target: T2, IKZF1 (Homo sapiens, UniProt Q13422+Q96SW2); test: Western blot degradation of IKZF1 in hPBMCs (24 h)
# T2 construct: The supernatant was aspirated as the extracted total cell protein; endogenous in cells; host or cells: human peripheral blood mononuclear cells (hPBMCs)
# Procedure, shortened: as §1
# IKZF3 = target: T3, IKZF3 (Homo sapiens, UniProt Q96SW2+Q9UKT9); test: Western blot degradation of IKZF3 in hPBMCs (24 h)
# T3 construct: The supernatant was aspirated as the extracted total cell protein; endogenous in cells; host or cells: human peripheral blood mononuclear cells (hPBMCs)
# Procedure, shortened: as §1
# IKZF2 = target: T4, IKZF2 (Homo sapiens, UniProt Q96SW2+Q9UKS7); test: Western blot degradation of IKZF2 in hPBMCs (24 h)
# T4 construct: The supernatant was aspirated as the extracted total cell protein; endogenous in cells; host or cells: human peripheral blood mononuclear cells (hPBMCs)
# Procedure, shortened: as §1
# CK1α = target: T5, CK1α (Homo sapiens, UniProt P48729+Q96SW2); test: Western blot degradation of CK1α in hPBMCs (24 h)
# T5 construct: The supernatant was aspirated as the extracted total cell protein; endogenous in cells; host or cells: human peripheral blood mononuclear cells (hPBMCs)
# Procedure, shortened: as §1
# GSPT1 = target: T6, GSPT1 (Homo sapiens, UniProt P15170+Q96SW2); test: Western blot degradation of GSPT1 in hPBMCs (24 h)
# T6 construct: The supernatant was aspirated as the extracted total cell protein; endogenous in cells; host or cells: human peripheral blood mononuclear cells (hPBMCs)
# Procedure, shortened: as §1
# T4 sequence (Q9UKS7 whole entry): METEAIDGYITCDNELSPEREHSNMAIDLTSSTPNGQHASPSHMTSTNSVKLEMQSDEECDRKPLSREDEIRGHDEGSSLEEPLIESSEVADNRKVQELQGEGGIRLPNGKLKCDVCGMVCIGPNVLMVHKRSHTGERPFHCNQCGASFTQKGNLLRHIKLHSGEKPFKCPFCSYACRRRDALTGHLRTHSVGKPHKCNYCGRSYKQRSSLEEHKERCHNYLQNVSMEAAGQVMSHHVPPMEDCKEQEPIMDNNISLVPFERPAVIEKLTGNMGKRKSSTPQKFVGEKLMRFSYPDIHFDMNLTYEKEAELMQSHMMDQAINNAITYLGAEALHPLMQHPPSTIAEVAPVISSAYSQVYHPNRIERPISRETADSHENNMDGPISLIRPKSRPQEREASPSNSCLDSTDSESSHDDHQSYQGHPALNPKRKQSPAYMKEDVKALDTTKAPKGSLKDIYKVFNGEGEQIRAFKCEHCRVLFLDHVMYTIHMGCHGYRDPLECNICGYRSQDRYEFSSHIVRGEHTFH
# T4 sequence (Q96SW2 whole entry): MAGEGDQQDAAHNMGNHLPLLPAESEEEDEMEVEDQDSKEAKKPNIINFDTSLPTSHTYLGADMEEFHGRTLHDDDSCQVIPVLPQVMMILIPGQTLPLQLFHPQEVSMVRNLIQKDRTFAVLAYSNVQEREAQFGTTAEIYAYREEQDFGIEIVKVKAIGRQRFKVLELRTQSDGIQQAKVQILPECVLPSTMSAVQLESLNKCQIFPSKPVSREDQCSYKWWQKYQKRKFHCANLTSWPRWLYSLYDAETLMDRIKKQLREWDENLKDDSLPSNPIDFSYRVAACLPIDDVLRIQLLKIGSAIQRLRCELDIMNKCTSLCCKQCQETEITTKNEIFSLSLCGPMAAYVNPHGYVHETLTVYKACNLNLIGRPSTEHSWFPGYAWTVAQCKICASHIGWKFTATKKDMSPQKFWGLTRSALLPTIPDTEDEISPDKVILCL
# T4 sequence (Q16531 whole entry partner): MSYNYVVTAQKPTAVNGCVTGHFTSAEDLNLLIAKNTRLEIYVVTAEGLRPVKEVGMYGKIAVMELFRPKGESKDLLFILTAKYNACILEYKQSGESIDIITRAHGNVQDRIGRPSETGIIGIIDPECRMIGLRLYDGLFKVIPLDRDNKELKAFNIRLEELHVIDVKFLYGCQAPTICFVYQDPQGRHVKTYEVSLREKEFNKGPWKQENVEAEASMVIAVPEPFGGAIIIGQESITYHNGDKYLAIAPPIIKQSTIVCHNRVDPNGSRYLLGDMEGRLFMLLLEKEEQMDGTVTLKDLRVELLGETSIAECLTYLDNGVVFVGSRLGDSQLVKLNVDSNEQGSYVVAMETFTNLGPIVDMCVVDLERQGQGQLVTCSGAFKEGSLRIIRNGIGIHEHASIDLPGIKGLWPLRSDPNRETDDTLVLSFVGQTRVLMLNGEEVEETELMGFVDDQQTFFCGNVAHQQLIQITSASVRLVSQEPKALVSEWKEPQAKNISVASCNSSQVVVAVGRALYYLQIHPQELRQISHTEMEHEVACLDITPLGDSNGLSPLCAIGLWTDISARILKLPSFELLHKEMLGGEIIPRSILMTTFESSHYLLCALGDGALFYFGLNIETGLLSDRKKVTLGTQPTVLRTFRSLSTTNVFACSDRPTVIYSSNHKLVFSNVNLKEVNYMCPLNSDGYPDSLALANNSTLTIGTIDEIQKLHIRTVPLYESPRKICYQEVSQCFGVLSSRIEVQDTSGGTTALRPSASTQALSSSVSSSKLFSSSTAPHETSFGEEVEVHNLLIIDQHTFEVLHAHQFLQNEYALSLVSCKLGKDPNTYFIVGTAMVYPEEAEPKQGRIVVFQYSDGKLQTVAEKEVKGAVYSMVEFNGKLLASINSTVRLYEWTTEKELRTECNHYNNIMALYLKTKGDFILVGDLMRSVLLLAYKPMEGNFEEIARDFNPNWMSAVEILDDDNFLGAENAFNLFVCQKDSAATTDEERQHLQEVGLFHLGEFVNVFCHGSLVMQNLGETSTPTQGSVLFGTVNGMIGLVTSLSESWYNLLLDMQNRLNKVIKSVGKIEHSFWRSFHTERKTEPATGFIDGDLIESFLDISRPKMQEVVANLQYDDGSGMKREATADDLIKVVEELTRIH
# T3 sequence (Q9UKT9 whole entry): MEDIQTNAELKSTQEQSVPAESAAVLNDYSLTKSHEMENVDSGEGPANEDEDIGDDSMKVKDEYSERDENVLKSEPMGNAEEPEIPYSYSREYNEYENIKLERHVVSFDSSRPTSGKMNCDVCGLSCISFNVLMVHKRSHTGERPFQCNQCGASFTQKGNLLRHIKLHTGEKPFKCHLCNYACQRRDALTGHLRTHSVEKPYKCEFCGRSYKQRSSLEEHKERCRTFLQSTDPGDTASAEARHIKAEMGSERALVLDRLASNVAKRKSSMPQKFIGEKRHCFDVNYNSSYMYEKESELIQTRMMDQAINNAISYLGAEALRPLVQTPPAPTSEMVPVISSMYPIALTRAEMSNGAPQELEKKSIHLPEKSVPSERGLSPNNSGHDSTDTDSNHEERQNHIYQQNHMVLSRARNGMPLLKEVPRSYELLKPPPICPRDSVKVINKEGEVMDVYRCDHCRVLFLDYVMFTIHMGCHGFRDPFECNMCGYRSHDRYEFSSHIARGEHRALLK
# T3 sequence (Q96SW2 whole entry): as the sequence (Q96SW2 whole entry) above
# T3 sequence (Q16531 whole entry partner): as the sequence (Q16531 whole entry partner) above
# T5 sequence (P48729 whole entry): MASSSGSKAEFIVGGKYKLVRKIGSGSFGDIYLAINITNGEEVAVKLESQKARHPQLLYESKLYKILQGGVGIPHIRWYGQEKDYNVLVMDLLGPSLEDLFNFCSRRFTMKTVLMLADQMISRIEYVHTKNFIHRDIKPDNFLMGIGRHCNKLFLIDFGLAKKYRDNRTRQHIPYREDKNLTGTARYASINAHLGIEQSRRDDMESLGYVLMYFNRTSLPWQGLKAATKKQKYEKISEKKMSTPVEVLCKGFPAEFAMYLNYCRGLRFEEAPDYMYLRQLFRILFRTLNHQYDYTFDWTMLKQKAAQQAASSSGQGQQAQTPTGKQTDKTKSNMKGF
# T5 sequence (Q96SW2 whole entry): as the sequence (Q96SW2 whole entry) above
# T5 sequence (Q16531 whole entry partner): as the sequence (Q16531 whole entry partner) above
# T1 sequence (P30291 whole entry): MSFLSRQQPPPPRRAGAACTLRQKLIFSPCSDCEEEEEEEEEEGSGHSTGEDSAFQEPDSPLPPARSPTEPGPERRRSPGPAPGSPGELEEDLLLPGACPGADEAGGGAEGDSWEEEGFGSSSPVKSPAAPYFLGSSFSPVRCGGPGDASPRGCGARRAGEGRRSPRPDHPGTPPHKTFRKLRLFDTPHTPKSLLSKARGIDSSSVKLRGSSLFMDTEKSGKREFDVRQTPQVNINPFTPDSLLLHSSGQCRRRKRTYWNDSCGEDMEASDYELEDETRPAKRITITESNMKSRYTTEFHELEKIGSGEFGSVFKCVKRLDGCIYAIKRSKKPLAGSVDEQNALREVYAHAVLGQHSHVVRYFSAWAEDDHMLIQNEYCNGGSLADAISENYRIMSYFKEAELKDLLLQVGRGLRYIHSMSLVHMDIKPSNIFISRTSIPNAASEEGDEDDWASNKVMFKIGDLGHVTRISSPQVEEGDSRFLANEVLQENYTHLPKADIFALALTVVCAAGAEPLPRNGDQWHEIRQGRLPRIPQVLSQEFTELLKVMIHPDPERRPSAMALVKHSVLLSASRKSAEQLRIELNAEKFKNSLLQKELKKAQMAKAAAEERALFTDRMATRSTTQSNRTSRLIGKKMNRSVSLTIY
# T1 sequence (Q96SW2 whole entry): as the sequence (Q96SW2 whole entry) above
# T1 sequence (Q16531 whole entry partner): as the sequence (Q16531 whole entry partner) above
# T6 sequence (P15170 whole entry): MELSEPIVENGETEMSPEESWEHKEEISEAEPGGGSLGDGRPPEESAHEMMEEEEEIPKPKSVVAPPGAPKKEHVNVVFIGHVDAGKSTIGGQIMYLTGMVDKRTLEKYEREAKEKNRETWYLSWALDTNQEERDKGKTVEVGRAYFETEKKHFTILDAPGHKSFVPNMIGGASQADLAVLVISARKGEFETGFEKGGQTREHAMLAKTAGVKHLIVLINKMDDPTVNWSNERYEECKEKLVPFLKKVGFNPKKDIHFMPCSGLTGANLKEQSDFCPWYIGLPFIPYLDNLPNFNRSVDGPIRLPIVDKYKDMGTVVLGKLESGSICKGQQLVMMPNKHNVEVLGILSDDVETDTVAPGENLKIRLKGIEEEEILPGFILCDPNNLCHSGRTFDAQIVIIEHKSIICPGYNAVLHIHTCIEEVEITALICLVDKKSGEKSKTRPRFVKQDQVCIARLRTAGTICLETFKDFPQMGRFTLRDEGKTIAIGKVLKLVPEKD
# T6 sequence (Q96SW2 whole entry): as the sequence (Q96SW2 whole entry) above
# T6 sequence (Q16531 whole entry partner): as the sequence (Q16531 whole entry partner) above
smiles,measurement,setting,value
"Cc1cc(C2CCN(Cc3ccc4c(c3)CN(N3CCC(=O)NC3=O)C4=O)CC2)cs1 [GT-07373, 1-(5-((4-(5-methylthiophen-3-yl)piperidin-1-yl)methyl)-1-oxoisoindolin-2-yl)dihydropyrimidine-2,4(1H,3H)-dione]",WEE1 substrate protein remaining %,WEE1,B (80%< substrate protein remaining % ≤100%)
same,IKZF1 substrate protein remaining %,IKZF1,B (80%< substrate protein remaining % ≤100%)
same,IKZF3 substrate protein remaining %,IKZF3,A (0% ≤ substrate protein remaining % ≤80%)
same,IKZF2 substrate protein remaining %,IKZF2,B (80%< substrate protein remaining % ≤100%)
same,CK1α substrate protein remaining %,CK1α,B (80%< substrate protein remaining % ≤100%)
same,GSPT1 substrate protein remaining %,GSPT1,A (0% ≤ substrate protein remaining % ≤80%)
"O=C1CCN(N2C(=O)c3ccc(CN4CC=C(c5ccsc5)CC4)cc3C2=O)C(=O)N1 [GT-06435, 2-(2,4-dioxotetrahydropyrimidin-1(2H)-yl)-5-((4-(thiophen-3-yl)-3,6-dihydropyridin-1(2H)-yl)methyl)isoindoline-1,3-dione]",WEE1 substrate protein remaining %,WEE1,A (0% ≤ substrate protein remaining % ≤80%)
same,IKZF1 substrate protein remaining %,IKZF1,B (80%< substrate protein remaining % ≤100%)
same,IKZF3 substrate protein remaining %,IKZF3,A (0% ≤ substrate protein remaining % ≤80%)
same,IKZF2 substrate protein remaining %,IKZF2,A (0% ≤ substrate protein remaining % ≤80%)
same,CK1α substrate protein remaining %,CK1α,B (80%< substrate protein remaining % ≤100%)
same,GSPT1 substrate protein remaining %,GSPT1,A (0% ≤ substrate protein remaining % ≤80%)
"O=C1CCN(N2C(=O)c3ccc(CNC45CC6CC(CC(O)(C6)C4)C5)cc3C2=O)C(=O)N1 [GT-07786, 2-(2,4-dioxotetrahydropyrimidin-1(2H)-yl)-5-((((1r,3s,5R,7S)-3-hydroxyadamantan-1-yl)amino)methyl)isoindoline-1,3-dione]",WEE1 substrate protein remaining %,WEE1,B (80%< substrate protein remaining % ≤100%)
same,IKZF1 substrate protein remaining %,IKZF1,B (80%< substrate protein remaining % ≤100%)
same,IKZF3 substrate protein remaining %,IKZF3,B (80%< substrate protein remaining % ≤100%)
same,IKZF2 substrate protein remaining %,IKZF2,B (80%< substrate protein remaining % ≤100%)
same,CK1α substrate protein remaining %,CK1α,B (80%< substrate protein remaining % ≤100%)
same,GSPT1 substrate protein remaining %,GSPT1,A (0% ≤ substrate protein remaining % ≤80%)
"Cc1cscc1C1CCN(Cc2ccc3c(c2)C(=O)N(N2CCC(=O)NC2=O)C3=O)CC1 [GT-05314, 2-(2,4-dioxotetrahydropyrimidin-1(2H)-yl)-5-((4-(4-methylthiophen-3-yl)piperidin-1-yl)methyl)isoindoline-1,3-dione]",WEE1 substrate protein remaining %,WEE1,B (80%< substrate protein remaining % ≤100%)
same,IKZF1 substrate protein remaining %,IKZF1,B (80%< substrate protein remaining % ≤100%)
same,IKZF3 substrate protein remaining %,IKZF3,B (80%< substrate protein remaining % ≤100%)
same,IKZF2 substrate protein remaining %,IKZF2,B (80%< substrate protein remaining % ≤100%)
same,CK1α substrate protein remaining %,CK1α,B (80%< substrate protein remaining % ≤100%)
same,GSPT1 substrate protein remaining %,GSPT1,A (0% ≤ substrate protein remaining % ≤80%)
"O=C1CCN(N2Cc3cc(CN4CCN(c5ncnc6ccsc56)CC4)ccc3C2=O)C(=O)N1 [GT-08443, 1-(1-oxo-5-((4-(thieno[3,2-d]pyrimidin-4-yl)piperazin-1-yl)methyl)isoindolin-2-yl)dihydropyrimidine-2,4(1H,3H)-dione]",WEE1 substrate protein remaining %,WEE1,A (0% ≤ substrate protein remaining % ≤80%)
same,IKZF1 substrate protein remaining %,IKZF1,B (80%< substrate protein remaining % ≤100%)
same,IKZF3 substrate protein remaining %,IKZF3,B (80%< substrate protein remaining % ≤100%)
same,IKZF2 substrate protein remaining %,IKZF2,B (80%< substrate protein remaining % ≤100%)
same,CK1α substrate protein remaining %,CK1α,B (80%< substrate protein remaining % ≤100%)
same,GSPT1 substrate protein remaining %,GSPT1,B (80%< substrate protein remaining % ≤100%)
